# Literature values as cited in patent US12383619B2, “Use of glutamate modulating agents with immunotherapies to treat cancer” (Biohaven Therapeutics Ltd., priority 2016, dated 2025).
# Where two headings read alike, the source gives them in different places.
# Test system: advanced NSCLC
# Settings: 75 mg/m^2 every 3 weeks, cited from earlier work
# [1] = TPS≥50% (section head prints 'TPS')
compound,measurement,setting,value
"CC(=O)O[C@@]12CO[C@@H]1C[C@H](O)[C@@]1(C)C(=O)[C@H](O)C3=C(C)[C@@H](OC(=O)[C@H](O)[C@@H](NC(=O)OC(C)(C)C)c4ccccc4)C[C@@](O)([C@@H](OC(=O)c4ccccc4)[C@H]21)C3(C)C [Docetaxel, docetaxel]",PFS: Number of patients with event,"TPS 1% (entire population), BICR, RECIST 1.1",257
same,OS: % of patients with event,TPS 1% (entire population),(56%)
same,OS: Number of patients with event,TPS 1% (entire population),193
same,Overall response rate: ORR %,TPS 1% (entire population),9%
same,PFS: % of patients with event,TPS 1% (entire population),(75%)
same,PFS: Median in months,TPS 1% (entire population),4.0 months
same,Response duration: % ongoing,TPS 1% (entire population),34%
same,Response duration: Median in months,TPS 1% (entire population),6.2 months
same,Overall response rate: ORR %,"TPS≥50% (section head prints 'TPS'), all partial responses",8%
same,OS: % of patients with event,[1],(57%)
same,OS: Median in months,[1],8.2 months
same,OS: Number of patients with event,[1],86
same,PFS: % of patients with event,[1],(78%)
same,PFS: Median in months,[1],4.1 months
same,PFS: Number of patients with event,[1],118
same,Response duration: % ongoing,[1],33%
same,Response duration: Median in months,[1],8.1 months
